Assay results as given in patent publication US5661153A, “1-arylpyrimidine derivatives and pharmaceutical use thereof” (Japan Energy Corporation, priority 1994, dated 1997).
Read-outs that look alike come from different tables or passages of the source.

Assays:
[1] = test system: passive cutaneous anaphylaxis (PCA) reaction; assay: Inhibiting effect on a 48 hour PCA reaction (test method for compound prepared in Example 22); format: in vivo, male Wistar strain rats; settings: 100 mg/kg orally 30 minutes before the induction; dye leakage
Description: (§1) Eight-weeks old male Wistar strain rats were immunized by subcutaneously injecting 0.1 ml of 700-fold diluted DNP-Ascaris antiserum (titer=1:1024) at two positions on the dorsum. Forty-eight hours after the immunization, 1 ml of a 0.5% Evans blue solution containing 1 mg of DNP-Ascaris antigen was administered into a pedal vein to induce a PCA reaction. Thirty minutes after the induction, the rats were bled to death and blue circular parts appearing at the immunized positions were excised. The dye was extracted from the blue circular parts with ethyl acetate and the amount of the dye leakage was determined. A test substance was suspended in a 0.5% CMC-Na solution and administered orally to each rat at a dose of 100 mg/kg 30 minutes before the induction.
(§2) Using a reference group to which only a 0.5% CMC-Na solution was administered orally, a reference value for the amount of dye leakage was obtained. The percent inhibition was determined as 100% when the amount of dye leakage was zero and as 0% when the amount of dye leakage was equal to the reference value. On the basis of these criteria, the percent inhibition of each test substance was calculated at varying doses.

[2] = test system: passive cutaneous anaphylaxis (PCA) reaction; assay: Inhibiting effect on a 48 hour PCA reaction (test method for compound prepared in Example 1); format: in vivo, male Wistar strain rats; settings: dye leakage
Description: as §1, with “0.05” for “0.1”, “50-fold” for “700-fold”, “(titer=1:64)” for “(titer=1:1024)”, “four” for “two”, “tail” for “pedal”, “1 hour” for “at a dose of 100 mg/kg 30 minutes”
as §2

[3] = test system: picryl chloride-induced type IV allergy; assay: Inhibiting effect on a picryl chloride-induced type IV allergy (1-aryluracil derivatives); format: in vivo, male ICR strain mice; settings: Mus musculus, po, read-out: Percent Inhibition; for inhibition in vivo at 100 mg/kg: 100 mg/kg orally twice (just after induction and 16 hours after)
Description: (§3) The abdomen of 6-weeks old male ICR strain mice was shaven and 0.1 ml of a 7% picryl chloride solution in acetone was applied to the epithelium of the abdomen for immunization. After one week, 5 μl of a 1% picryl chloride solution in olive oil was applied to both sides of the left auricula to induce an allergy reaction. A given amount of a test substance was suspended in a 0.5% CMC-Na solution and the resulting suspension was administered orally to each mouse twice, i.e., just after the induction and 16 hours after. The thickness of the left auricula was measured both before the induction and 24 hours after.
as §2, with “The difference between the thickness of the left auricula before the induction and the value measured 24 hours after was calculated as the increase in thickness. Using” for “Using”, “increase in thickness” for “amount of dye leakage”

[4] = test system: picryl chloride-induced type IV allergy; assay: Inhibiting effect on a picryl chloride-induced type IV allergy (3-arylpurine derivatives); format: in vivo, male ICR strain mice; settings: left auricula thickness at 24 hours
Description: as §3
as §2, with “The difference between the thickness of the left auricula before the induction and the value measured 24 hours after was calculated as the increase in thickness. Using” for “Using”, “increase in thickness” for “amount of dye leakage”

[5] = Toxicity Test (Experimental Example 2, 3-arylpurine derivatives); format: in vivo, male SD rats; settings: 1,000 mg/kg orally once a day for 2 consecutive weeks
Description: (§4) A test substance was suspended in a 0.5% CMC-Na solution and administered orally to 6-weeks old male SD rats once a day at a dose of 1,000 mg/kg for 2 consecutive weeks. The weight of each rat was measured both before the administration and every day during the administration. A given amount of blood was collected on the day after the end of the administration period and examined. Collected urine was also examined. In addition, organs were checked for any aberrations by autopsy.

[6] = Toxicity Test (Experimental Example 1, 1-aryluracil derivatives); format: in vivo, male SD rats; settings: 1,000 mg/kg orally once a day for 2 consecutive weeks
Description: as §4

[7] = 10 mg/kg orally twice (just after induction and 16 hours after)
[8] = left auricula thickness at 24 hours
[9] = 10 mg/kg orally twice (just after induction and 16 hours after), left auricula thickness at 24 hours
[10] = 100 mg/kg orally twice (just after induction and 16 hours after)

Compound: COc1ccc(/C=C/C(=O)Nc2ccccc2C(=O)O)cc1OC [Tranilast, tranilast, reference compound]
- Percent Inhibition [1]: 35%
- Percent Inhibition ([2]; 100 mg/kg orally 1 hour before the induction): 66%

Compound: C[C@]12C=CC(=O)C=C1CC[C@@H]1[C@@H]2[C@@H](O)C[C@@]2(C)[C@H]1CC[C@]2(O)C(=O)CO [Prednisolone, prednisolone, reference compound]
- inhibition in vivo at 10 mg/kg ([3]; 24 h): 77%
- Percent Inhibition [4, 7]: 67%

Compound: Cn1c(=O)c2[nH]c(-c3ccc(O)c(O)c3)nc2n(-c2ccccc2)c1=O [Example 78, 8-(3,4-Dihydroxyphenyl)-1-methyl-3-phenylpurine-2,6-dione]
- Percent Inhibition [4, 7]: 35%

Compound: Cn1c(=O)c2[nH]c(-c3cc(C(C)(C)C)c(O)c(C(C)(C)C)c3)nc2n(-c2ccccc2)c1=O [Example 74, 8-(3,5-Di-tert-butyl-4-hydroxyphenyl)-1-methyl-3-phenylpurine-2,6-dione]
- Percent Inhibition [4, 7]: 38%
- autopsy [5]: no abnormality was observed
- blood examination [5]: no abnormality was observed
- death during the administration period [5]: no rat died
- urine examination [5]: no abnormality was observed
- weight change [5]: no abnormality was observed

Compound: CCCn1c(=O)c(NC(=O)c2cc(OC(C)=O)cc(OC(C)=O)c2)c(N)n(-c2ccccc2)c1=O [Example 11, 6-Amino-5-(3,5-diacetoxyphenyl)carboxyamido-1-phenyl-3-propyluracil]
- inhibition in vivo at 100 mg/kg [3, 8]: 30%

Compound: Cn1c(=O)c(NC(=O)c2cc(=O)cco2)c(N)n(-c2ccccc2)c1=O [Example 51, 6-Amino-3-methyl-5-(4-oxo-4H-pyran-2-yl)carboxyamido-1-phenyluracil]
- inhibition in vivo at 10 mg/kg [3, 9]: 45%

Compound: CC(=O)Oc1cc(-c2nc3c([nH]2)c(=O)n(C)c(=O)n3-c2ccccc2)cc(OC(C)=O)c1OC(C)=O [Example 80, 1-Methyl-3-phenyl-8-(3,4,5-triacetoxyphenyl)purine-2,6-dione]
- Percent Inhibition [4, 7]: 37%
- Percent Inhibition [4, 10]: 53%

Compound: Cn1c(=O)c(NC(=O)c2cc(C(C)(C)C)c(O)c(C(C)(C)C)c2)c(N)n(-c2ccc(F)cc2)c1=O [Example 2, 6-Amino-5-(3,5-di-tert-butyl-4-hydroxyphenyl)carboxyamido-1-(4-fluorophenyl)-3-methyluracil]
- inhibition in vivo at 3 mg/kg ([3]; 3 mg/kg orally twice (just after induction and 16 hours after), left auricula thickness at 24 hours): 38%

Compound: CC(=O)Oc1cc(C(=O)Nc2c(N)n(-c3ccccc3)c(=O)n(C)c2=O)cc(OC(C)=O)c1OC(C)=O [Example 22, 6-Amino-3-methyl-1-phenyl-5-(3,4,5-triacetoxyphenyl)carboxyamidouracil]
- inhibition in vivo at 10 mg/kg [3, 9]: 48%
- inhibition in vivo at 100 mg/kg [3, 8]: 72%
- Percent Inhibition [1]: 50%

Compound: Cn1c(=O)c(NC(=O)C2(C)CCCCC2)c(N)n(-c2ccccc2)c1=O [Example 61, 6-Amino-3-methyl-5-(1-methylcyclohexyl)carboxyamido-1-phenyluracil]
- inhibition in vivo at 100 mg/kg [3, 8]: 32%

Compound: COc1ccc(O)c(C(=O)Nc2c(N)n(-c3ccccc3)c(=O)n(C)c2=O)c1 [Example 53, 6-Amino-5-(2-hydroxy-5-methoxyphenyl)carboxyamido-3-methyl-1-phenyluracil]
- inhibition in vivo at 10 mg/kg [3, 9]: 45%
- autopsy [6]: no abnormality was observed
- blood examination [6]: no abnormality was observed
- death during the administration period [6]: no rat died
- urine examination [6]: no abnormality was observed
- weight change [6]: no abnormality was observed

Compound: CC(=O)Oc1ccc(C(=O)Nc2c(N)n(-c3ccccc3)c(=O)n(C)c2=O)cc1OC(C)=O [Example 34, 6-Amino-5-(3,4-diacetoxyphenyl)carboxyamido-3-methyl-1-phenyluracil]
- inhibition in vivo at 10 mg/kg [3, 9]: 33%
- inhibition in vivo at 100 mg/kg [3, 8]: 52%

Compound: Cn1c(=O)c(NC(=O)c2cc(C(C)(C)C)c(O)c(C(C)(C)C)c2)c(N)n(-c2ccccc2)c1=O [Example 1, 6-Amino-5-(3,5-di-tert-butyl-4-hydroxyphenyl)carboxyamido-3-methyl-1-phenyluracil]
- inhibition in vivo at 10 mg/kg [3, 9]: 54%
- Percent Inhibition ([2]; 3 mg/kg orally 1 hour before the induction): 33%
- Percent Inhibition ([2]; 30 mg/kg orally 1 hour before the induction): 49%

Compound: CC1CCC(C(=O)Nc2c(N)n(-c3ccccc3)c(=O)n(C)c2=O)CC1 (centres unmarked) [Example 60, 6-Amino-3-methyl-5-(4-methylcyclohexyl)carboxyamido-1-phenyluracil]
- inhibition in vivo at 10 mg/kg [3, 9]: 40%

Compound: COc1ccc(-n2c(N)c(NC(=O)c3cc(OC)ccc3OC(C)=O)c(=O)n(C)c2=O)cc1 [Example 55, 5-(2-Acetoxy-5-methoxyphenyl)carboxyamido-6-amino-1-(4-methoxyphenyl)-3-methyluracil]
- inhibition in vivo at 100 mg/kg [3, 8]: 35%

Compound: COc1ccc(-n2c(N)c(NC(=O)c3cc(C(C)(C)C)c(O)c(C(C)(C)C)c3)c(=O)n(C)c2=O)cc1 [Example 4, 6-Amino-5-(3,5-di-tert-butyl-4-hydroxyphenyl)carboxyamido-1-(4-methoxyphenyl)-3-methyluracil]
- inhibition in vivo at 10 mg/kg [3, 9]: 35%

Compound: COc1ccc(-n2c(=O)n(C)c(=O)c3[nH]c(-c4cc(C(C)(C)C)c(O)c(C(C)(C)C)c4)nc32)cc1 [Example 75, 8-(3,5-Di-tert-butyl-4-hydroxyphenyl)-3-(4-methoxyphenyl)-1-methylpurine-2,6-dione]
- Percent Inhibition [4, 7]: 16%
- Percent Inhibition [4, 10]: 34%

Compound: Cn1c(=O)c(NC(=O)c2ccc(=O)oc2)c(N)n(-c2ccccc2)c1=O [Example 52, 6-Amino-3-methyl-5-(2-oxo-2H-pyran-5-yl)carboxyamido-1-phenyluracil]
- inhibition in vivo at 10 mg/kg [3, 9]: 19%
- inhibition in vivo at 100 mg/kg [3, 8]: 39%

Compound: Cc1ccc(-n2c(N)c(NC(=O)c3cc(C(C)(C)C)c(O)c(C(C)(C)C)c3)c(=O)n(C)c2=O)cc1 [Example 3, 6-Amino-5-(3,5-di-tert-butyl-4-hydroxyphenyl)carboxyamido-3-methyl-1-(4-methylphenyl)uracil]
- inhibition in vivo at 10 mg/kg [3, 9]: 33%

Compound: Cn1c(=O)c(NC(=O)c2cc(O)cc(O)c2)c(N)n(-c2ccccc2)c1=O [Example 14, 6-Amino-5-(3,5-dihydroxyphenyl)carboxyamido-3-methyl-1-phenyluracil]
- inhibition in vivo at 10 mg/kg [3, 9]: 45%

Compound: CC(=O)Oc1cc(OC(C)=O)cc(C(=O)Nc2c(N)n(-c3ccc(F)cc3)c(=O)n(C)c2=O)c1 [Example 8, 6-Amino-5-(3,5-diacetoxyphenyl)carboxyamido-1-(4-fluorophenyl)-3-methyluracil]
- inhibition in vivo at 10 mg/kg [3, 9]: 43%

Compound: CC(=O)Oc1cc(OC(C)=O)cc(C(=O)Nc2c(N)n(-c3ccccc3)c(=O)n(C)c2=O)c1 [Example 7, 6-Amino-5-(3,5-diacetoxyphenyl)carboxyamido-3-methyl-1-phenyluracil]
- inhibition in vivo at 10 mg/kg [3, 9]: 65%
- autopsy [6]: no abnormality was observed
- blood examination [6]: no abnormality was observed
- death during the administration period [6]: no rat died
- urine examination [6]: no abnormality was observed
- weight change [6]: no abnormality was observed
